# Laboratory results as given in the supplement of paper PMC11424490.
# What was measured:
# NCI-H2122 [1] = experiment: relative IC50 of cell viability (CellTiter-Glo); higher = less potent
# Procedure, shortened: (§1)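 The NCI-H2122, SW837 and NCI-H358 cell lines were plated in 384-well format at 800, 500 and 500 cells/well respectively, in 60 µl. After a 24 h wait, single compounds were applied in dose series by acoustic dispensing, and plates were incubated 72 h, or 144 h in the case of SW837. Readout was CellTiter-Glo luminescence on an EnVision reader following 15 min shaking, normalised to DMSO controls. Both the relative IC50 (a mean over replicates) and the lower plateau derive from a four-parameter nonlinear fit.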
# NCI-H358 [2] = experiment: as above
# Procedure, shortened: as §1
# SW837 [3] = experiment: as above
# Procedure, shortened: as §1
# NCI-H2122 [4] = experiment: fitted bottom plateau of viability curve, % of DMSO control; higher = less maximal inhibition; extreme values may be limits of the assay
# Procedure, shortened: as §1
# NCI-H358 [5] = experiment: as above
# Procedure, shortened: as §1
# SW837 [6] = experiment: as above
# Procedure, shortened: as §1
SMILES,relative IC50 of cell viability (NCI-H2122 [1]),relative IC50 of cell viability (NCI-H358 [2]),relative IC50 of cell viability (SW837 [3]),fitted bottom plateau of viability curve (NCI-H2122 [4]),fitted bottom plateau of viability curve (NCI-H358 [5]),fitted bottom plateau of viability curve (SW837 [6])
Nc1cc(C(F)(F)F)c(-c2cc(N3CCOCC3)nc(N3CCOCC3)n2)cn1 [BKM120] (top concentration tested 10000 nM),921 nM,1310 nM,1790 nM,3.49%,7.46%,20.6%
COC(=O)[C@]12CCC(C)(C)C[C@H]1[C@H]1C(=O)C=C3[C@@]4(C)C=C(C#N)C(=O)C(C)(C)[C@@H]4CC[C@@]3(C)[C@]1(C)CC2 [Bardoxolone methyl] (top concentration tested 1000 nM),319 nM,113 nM,200 nM,38.7%,0.645%,0%
O=C(/C=C/c1cccc(S(=O)(=O)Nc2ccccc2)c1)NO [Belinostat] (top concentration tested 10000 nM),274 nM,491 nM,1050 nM,1.64%,0.339%,0.0148%
Cc1c(N)nc([C@H](CC(N)=O)NC[C@H](N)C(N)=O)nc1C(=O)N[C@H](C(=O)N[C@H](C)[C@@H](O)[C@H](C)C(=O)N[C@H](C(=O)NCCc1nc(-c2nc(C(=O)NCCC[S+](C)C)cs2)cs1)[C@@H](C)O)[C@@H](OC1OC(CO)C(O)C(O)C1OC1OC(CO)C(O)C(OC(N)=O)C1O)c1cnc[nH]1 (stereo partly drawn) [Bleomycin] (top concentration tested 10000 nM),1200 nM,1380 nM,438 nM,45.4%,12.7%,4.05%
COc1cccc2c1C(=O)c1c(O)c3c(c(O)c1C2=O)C[C@@](O)(C(C)=O)C[C@@H]3O[C@H]1C[C@H](N)[C@H](O)[C@H](C)O1 [Daunorubicin] (top concentration tested 1000 nM),120 nM,27.6 nM,111 nM,17.2%,1.56%,0.5%
CCS(=O)(=O)Nc1ccc2c(c1)/C(=C(/Nc1ccc(CN3CCCCC3)cc1)c1ccccc1)C(=O)N2 [Hesperadin] (top concentration tested 10000 nM),19 nM,43.7 nM,366 nM,5.85%,0%,0%
C=C(F)C(=O)N1CCN(c2nc(OC[C@@H]3CCCN3C)nc3c2CCN(c2cccc4cccc(Cl)c24)C3)C[C@@H]1CC#N [MRTX849 / Adagrasib] (top concentration tested 999.97 nM),39.7 nM,25.2 nM,304 nM,7.33%,1.24%,0.0244%
O=C1c2c(O)ccc(O)c2C(=O)c2c(NCCNCCO)ccc(NCCNCCO)c21 [Mitoxantrone] (top concentration tested 999.98 nM),62.4 nM,19.9 nM,79.2 nM,28.7%,7.11%,0%
CCc1nc(N)nc(N)c1-c1ccc(Cl)cc1 [Pyrimethamine] (top concentration tested 50000 nM),3430 nM,8340 nM,8070 nM,28.9%,45.5%,39%
CCc1c2c(nc3ccc(O)cc13)-c1cc3c(c(=O)n1C2)COC(=O)[C@]3(O)CC [SN-38] (top concentration tested 99.894 nM),6.15 nM,6.48 nM,10.4 nM,30.2%,7.46%,2.39%

# More lines, main results first:
relative IC50 of cell viability (NCI-H2122 [1]),relative IC50 of cell viability (NCI-H358 [2]),relative IC50 of cell viability (SW837 [3]),SMILES,fitted bottom plateau of viability curve (NCI-H2122 [4]),fitted bottom plateau of viability curve (NCI-H358 [5]),fitted bottom plateau of viability curve (SW837 [6])
43 nM,20.4 nM,57.7 nM,C=CC(=O)N1CCN(c2nc(=O)n(-c3c(C)ccnc3C(C)C)c3nc(-c4c(O)cccc4F)c(F)cc23)[C@@H](C)C1 [AMG510 / Sotorasib] (top concentration tested 1000 nM),12%,2.09%,39.6%
960 nM,297 nM,5140 nM,CCN1CCN(Cc2ccc(Nc3ncc(F)c(-c4cc(F)c5nc(C)n(C(C)C)c5c4)n3)nc2)CC1 [Abemaciclib] (top concentration tested 10000 nM),35.8%,0%,0%
1220 nM,176 nM,5660 nM,CN(C)C/C=C/C(=O)Nc1cc2c(Nc3ccc(F)c(Cl)c3)ncnc2cc1O[C@H]1CCOC1 [Afatinib] (top concentration tested 10000 nM),2.68%,0%,0%
16.5 nM,9.81 nM,5.91 nM,CC(C)C[C@H](NC(=O)[C@H](Cc1ccccc1)NC(=O)c1cnccn1)B(O)O [Bortezomib] (top concentration tested 999.9 nM),9.55%,0.755%,0.446%
3830 nM,1510 nM,4350 nM,COc1cc(Nc2c(C#N)cnc3cc(OCCCN4CCN(C)CC4)c(OC)cc23)c(Cl)cc1Cl [Bosutinib] (top concentration tested 10000 nM),23.5%,25.5%,12.1%
8750 nM,2060 nM,1680 nM,COc1cc(Nc2ncc(F)c(Nc3ccc4c(n3)N(COP(=O)(O)O)C(=O)C(C)(C)O4)n2)cc(OC)c1OC [Fostamatinib] (top concentration tested 9999.9 nM),37.4%,0%,47.6%
2560 nM,1010 nM,2210 nM,C=CC(=O)Nc1cc(Nc2nccc(-c3cn(C)c4ccccc34)n2)c(OC)cc1N(C)CCN(C)C [Osimertinib] (top concentration tested 10000 nM),0.698%,0%,11.4%
887 nM,2290 nM,1250 nM,Cc1ccc(C(=O)Nc2ccc(CN3CCN(C)CC3)c(C(F)(F)F)c2)cc1C#Cc1cnc2cccnn12 [Ponatinib] (top concentration tested 10000 nM),0.652%,0.0743%,0%
